Activity calls are given as the source filed them. The calls are words filed in the database; no cut-off is given here.
Experiments:
MCF7 [1] = test: Cytotoxicity against human MCF7 cells assessed as inhibition in cell growth incubated for 72 hrs by MTT assay; type: functional, cell-based; conditions: MCF7, 72 h
HT-29 = test: Cytotoxicity against human HT-29 cells assessed as inhibition in cell growth incubated for 72 hrs by MTT assay; type: functional, cell-based; conditions: HT-29, 72 h
A2780 = test: Cytotoxicity against human A2780 cells assessed as inhibition in cell growth incubated for 72 hrs by MTT assay; type: functional, cell-based; conditions: A2780, 72 h
[2] = Cytotoxicity against human MRC5 cells assessed as inhibition in cell growth incubated for 72 hrs by MTT assay; type: toxicity, cell-based
[3] = Selectivity index, ratio of IC50 for cytotoxicity against human MRC5 cells to IC50 for cytotoxicity against human MCF7 cells; conditions: MRC5 cells versus MCF7 cells
[4] = Selectivity index, ratio of IC50 for cytotoxicity against human MRC5 cells to IC50 for cytotoxicity against human HT-29 cells; conditions: MRC5 cells versus HT-29 cells
[5] = Selectivity index, ratio of IC50 for cytotoxicity against human MRC5 cells to IC50 for cytotoxicity against human A2780 cells; conditions: MRC5 cells versus A2780 cells
[6] = biological target: T1, Prostaglandin G/H synthase 1 (Ovis aries, UniProt P05979); test: Inhibition of ovine COX-1
T1 sequence (P05979 whole entry): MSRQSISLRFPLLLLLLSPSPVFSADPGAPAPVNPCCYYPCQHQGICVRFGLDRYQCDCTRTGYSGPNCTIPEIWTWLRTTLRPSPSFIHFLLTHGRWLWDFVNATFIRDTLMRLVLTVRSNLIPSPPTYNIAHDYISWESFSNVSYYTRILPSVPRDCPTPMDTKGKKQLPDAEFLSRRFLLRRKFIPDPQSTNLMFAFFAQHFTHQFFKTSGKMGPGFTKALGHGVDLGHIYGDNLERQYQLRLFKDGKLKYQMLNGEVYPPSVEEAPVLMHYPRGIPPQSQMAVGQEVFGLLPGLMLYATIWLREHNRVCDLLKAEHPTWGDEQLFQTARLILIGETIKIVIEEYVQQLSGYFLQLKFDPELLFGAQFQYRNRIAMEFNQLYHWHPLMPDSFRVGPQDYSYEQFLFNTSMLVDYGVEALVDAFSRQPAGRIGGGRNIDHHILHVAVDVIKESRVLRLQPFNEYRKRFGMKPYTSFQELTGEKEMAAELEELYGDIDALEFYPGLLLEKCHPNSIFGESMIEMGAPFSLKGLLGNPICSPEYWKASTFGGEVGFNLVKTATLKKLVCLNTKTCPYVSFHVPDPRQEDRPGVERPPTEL

Rattus norvegicus [7] = test: Antiinflammatory activity against carrageenan-induced paw edema Sprague-Dawley rat model assessed as inhibition of paw edema by measuring edema thickness at 50 mg/kg, po measured after 1 hr (reference value: 0.71 +/- 0.03 mm); type: functional
Rattus norvegicus [8] = test: Antiinflammatory activity against carrageenan-induced paw edema Sprague-Dawley rat model assessed as inhibition of paw edema by measuring edema thickness at 50 mg/kg, po measured after 3 hrs (reference value: 1.41 +/- 0.13 mm); type: functional
Rattus norvegicus [9] = test: Antiinflammatory activity against carrageenan-induced paw edema Sprague-Dawley rat model assessed as inhibition of paw edema by measuring edema thickness at 50 mg/kg, po measured after 5 hrs (reference value: 1.39 +/- 0.11 mm); type: functional
Rattus norvegicus [10] = test: Antiinflammatory activity against carrageenan-induced paw edema Sprague-Dawley rat model assessed as inhibition of inflammation at 50 mg/kg, po after 1 hr relative to control; type: functional; parameters: scale not given: the % may be the effect or the level left
Rattus norvegicus [11] = test: Antiinflammatory activity against carrageenan-induced paw edema Sprague-Dawley rat model assessed as inhibition of inflammation at 50 mg/kg, po after 3 hrs relative to control; type: functional; parameters: scale not given: the % may be the effect or the level left
Rattus norvegicus [12] = test: Antiinflammatory activity against carrageenan-induced paw edema Sprague-Dawley rat model assessed as inhibition of inflammation at 50 mg/kg, po after 5 hrs relative to control; type: functional; parameters: scale not given: the % may be the effect or the level left
[13] = Acute ulcerogenic activity in Sprague-Dawley male rat assessed as incidence of ulcer/10 animal at 50 mg/kg/day, po administered for 3 days; type: toxicity, organism-based; conditions: in vivo, 72 h, time 3 day
[14] = Acute ulcerogenic activity in Sprague-Dawley male rat assessed as average number of ulcers at 50 mg/kg/day, po administered for 3 days; type: toxicity, organism-based; conditions: in vivo, 72 h, time 3 day
[15] = Acute ulcerogenic activity in Sprague-Dawley male rat assessed as average severity of ulcers at 50 mg/kg/day, po administered for 3 days; type: toxicity, organism-based; conditions: in vivo, 72 h, time 3 day
[16] = Acute ulcerogenic activity in Sprague-Dawley male rat assessed as ulcer index at 50 mg/kg/day, po administered for 3 days; type: toxicity, organism-based; conditions: in vivo, 72 h, time 3 day
[17] = Acute ulcerogenic activity in Sprague-Dawley male rat assessed as abnormal structure of the gastric layer by measuring deeply congested blood vessels and aggregated of inflammatory cells at 50 mg/kg/day, po administered for 3 days by hematoxylin and eosin staining method; type: toxicity, organism-based, Stomach; conditions: in vivo, 72 h, time 3 day
[18] = Acute ulcerogenic activity in Sprague-Dawley male rat assessed as abnormal structure of the gastric layer by measuring inflammatory cells infiltration in lamina propria at 50 mg/kg/day, po administered for 3 days by hematoxylin and eosin staining method; type: toxicity, organism-based, Stomach; conditions: in vivo, 72 h, time 3 day
[19] = Acute ulcerogenic activity in Sprague-Dawley male rat assessed as abnormal structure of the gastric layer by measuring infiltration of lymphocytes in lamina propria at 50 mg/kg/day, po administered for 3 days by hematoxylin and eosin staining method; type: toxicity, organism-based, Stomach; conditions: in vivo, 72 h, time 3 day
[20] = Acute ulcerogenic activity in Sprague-Dawley male rat assessed as abnormal structure of the gastric layer by measuring infiltration of macrophages in lamina propria at 50 mg/kg/day, po administered for 3 days by hematoxylin and eosin staining method; type: toxicity, organism-based, Stomach; conditions: in vivo, 72 h, time 3 day
[21] = Acute ulcerogenic activity in Sprague-Dawley male rat assessed as abnormal structure of the gastric layer by measuring infiltration of lymphocytes in submucosa at 50 mg/kg/day, po administered for 3 days by hematoxylin and eosin staining method; type: toxicity, organism-based, Stomach; conditions: in vivo, 72 h, time 3 day
[22] = Acute ulcerogenic activity in Sprague-Dawley male rat assessed as abnormal structure of the gastric layer by measuring infiltration of macrophages in submucosa at 50 mg/kg/day, po administered for 3 days by hematoxylin and eosin staining method; type: toxicity, organism-based, Stomach; conditions: in vivo, 72 h, time 3 day
[23] = Acute ulcerogenic activity in Sprague-Dawley male rat assessed as abnormal structure of the gastric layer by measuring glandular hyperactivation in submucosa at 50 mg/kg/day, po administered for 3 days by hematoxylin and eosin staining method; type: toxicity, organism-based, Stomach; conditions: in vivo, 72 h, time 3 day
Sus scrofa = species: Sus scrofa; test: Induction of porcine brain tubulin polymerization at 3 uM by fluorescence-based tubulin polymerization assay
HepG2 = test: Cytotoxicity against human HepG2 cells assessed as inhibition in cell growth; type: functional, cell-based
HCT-116 = test: Cytotoxicity against human HCT-116 cells assessed as inhibition in cell growth; type: functional, cell-based
MCF7 [24] = test: Cytotoxicity against human MCF7 cells assessed as inhibition in cell growth; type: functional, cell-based
PC-3 = test: Cytotoxicity against human PC-3 cells assessed as inhibition in cell growth; type: functional, cell-based
[25] = Acute ulcerogenic activity in Sprague-Dawley male rat assessed as nonactivated glands in intact mucosa at 50 mg/kg/day, po administered for 3 days by hematoxylin and eosin staining method; type: toxicity, organism-based, Stomach; conditions: in vivo, 72 h, time 3 day
[26] = Acute ulcerogenic activity in Sprague-Dawley male rat assessed as congestion in intact mucosa at 50 mg/kg/day, po administered for 3 days by hematoxylin and eosin staining method; type: toxicity, organism-based, Stomach; conditions: in vivo, 72 h, time 3 day
[27] = Acute ulcerogenic activity in Sprague-Dawley male rat by measuring filtration of inflammatory cells in edema at 50 mg/kg/day, po administered for 3 days by hematoxylin and eosin staining method; type: toxicity, organism-based, Stomach; conditions: in vivo, 72 h, time 3 day
THP-1 = test: Cytotoxicity against human THP-1 cells assessed as inhibition in cell growth; type: functional, cell-based

SMILES | IC50 (MCF7 [1]) [µM] | IC50 (HT-29) [µM] | IC50 (A2780) [µM] | IC50 at 72 h [2] [µM] | selectivity ratio at 72 h [3] | selectivity ratio at 72 h [4] | selectivity ratio at 72 h [5] | IC50 [6] [µM] | Activity (Rattus norvegicus [7]) [mm] | Activity (Rattus norvegicus [8]) [mm] | Activity (Rattus norvegicus [9]) [mm] | Activity (Rattus norvegicus [10]) [%] | Activity (Rattus norvegicus [11]) [%] | Activity (Rattus norvegicus [12]) [%] | other results
Cc1ccc(NC(=O)COc2ccc(N3C(=O)CSC3c3ccccc3)cc2)cc1 (stereo not drawn) | 1.79 | 2.11 | 1.63 | 2.85 | 1.59 | 1.35 | 1.75 | 4.55 | 0.57 | 0.67 | 0.69 | 15.3 | 32.7 | 47.48 | 
O=C(COc1ccc(N2C(=O)CSC2c2ccccc2)cc1)Nc1ccc(Cl)cc1 (stereo not drawn) | 5.96 | 3.53 | 17 | 10.7 | 1.79 | 3.02 | 0.63 | 36.5 | 0.54 | 0.63 | 0.53 | 15.3 | 32.7 | 47.48 | 
COc1ccc(NC(=O)COc2ccc(N3C(=O)CSC3c3ccc(C)cc3)cc2)cc1 (stereo not drawn) | 2.47 | 5.34 | 4.7 | 2.89 | 1.17 | 0.54 | 0.61 | 8.37 | 0.61 | 0.79 | 0.73 | 15.3 | 32.7 | 47.48 | 
COc1ccc2c(c1)c(CC(=O)O)c(C)n2C(=O)c1ccc(Cl)cc1 [INDOMETHACIN] |  |  |  |  |  |  |  |  | 0.41 | 0.22 | 0.24 | 42.25 |  |  | Activity [13]: 10%; Activity [14]: 11.33; Activity [15]: 1; UI [16]: 22.33; Activity [17]: Toxic; Activity [18]: Toxic; Activity [19]: Toxic; Activity [20]: Toxic; Activity [21]: Toxic; Activity [22]: Toxic; Activity [23]: Toxic
CC(=O)O[C@H]1C(=O)[C@@]2(C)[C@H]([C@H](OC(=O)c3ccccc3)[C@]3(O)C[C@H](OC(=O)[C@H](O)[C@@H](NC(=O)c4ccccc4)c4ccccc4)C(C)=C1C3(C)C)[C@]1(OC(C)=O)CO[C@@H]1C[C@@H]2O |  |  |  |  |  |  |  |  |  |  |  |  |  |  | Activity (Sus scrofa): Active
CC(=O)c1ccc(NC(=O)COc2ccc(C3SCC(=O)N3c3ccccc3)cc2)cc1 (stereo not drawn) |  |  |  |  |  |  |  |  |  |  |  |  |  |  | IC50 (HepG2): 18.2 µM; IC50 (HCT-116): 18.2 µM; IC50 (MCF7 [24]): 18.2 µM; IC50 (PC-3): 18.2 µM
Cc1ccc(-c2cc(C(F)(F)F)nn2-c2ccc(S(N)(=O)=O)cc2)cc1 [CELECOXIB] | 15.4 | 32.5 | 18.1 |  |  |  |  |  | 0.27 | 0.34 | 0.5 | 61.97 |  | 64.03 | Activity [13]: 6.67%; Activity [14]: 0.67; Activity [15]: 1; UI [16]: 8.34; Activity [25]: Non-Toxic; Activity [26]: Toxic; Activity [27]: Non-Toxic
COc1ccc(N2C(=O)CSC2c2cc(OC)c(OC)c(OC)c2)cc1 (stereo not drawn) |  |  |  |  |  |  |  |  |  |  |  |  |  |  | IC50 (THP-1): 1.21 µM
